How the values were obtained:
[1] = target: T1, KAT6B (Homo sapiens, UniProt Q8WYB5); experiment: KATs acetyltransferase enzyme activity assay (TR-FRET), KAT6B; type: biochemical; conditions: Biotin-H3 (1-21) and AcCOA, 90 minutes at room temperature
T1 construct: purchased Active Motif 81224
Experimental: (§1) I. KATs acetyltransferase enzyme activity assay
(§2) • 1. The inhibitory effect of compounds on the acetyltransferase activity of KATs was evaluated using the Time-Resolved Fluorescence Resonance Energy Transfer (TR-FRET) assay. The assay was conducted in 384-well plates using Tris-HCl buffer. • 2. Compounds were diluted in DMSO and transferred to 384-well plates. Enzyme solutions (KAT6: active motif (kit), 81223; KAT6B: active motif, 81224; KAT5: SignalChem, K314-380G; KAT7: ICE, S2210F-H21HF; KAT8: Active motif, 81225) were added and the mixture was incubated at room temperature for 15 minutes. • 3. Subsequently, 2.5 µL of a mixture containing KAT6A/KAT6B: Biotin-H3 (1-21, Genscript, C6829GL060) or KAT5/7/8: Bio-H4 (1-25, Genscript, C736BGL100) AcCOA (Sigma, A2056) was added, and the reaction proceeded at room temperature for 90 minutes. • 4. After the reaction, a detection mixture containing Europium-anti-acetyl-Histone H4 Lysine (H4Kac pan) Antibody (Perkin Elmer, TRF0412) and LANCE Ultra ULight™-Streptavidin in LANCE™ Detection buffer (10x) (Perkin Elmer, CR97-100) was added, followed by incubation at room temperature for 60 minutes. • 5. HTRF signals were measured using a BMG PHERAstar FSX (Ratio: 665nm/620nm). IC50 values were calculated by nonlinear regression using a four-parameter logistic equation in GraphPad Prism 8 software.

[2] = tested on: ZR-75-1 cells; experiment: ZR-75-1 cell proliferation assay (CellTiter-Glo); type: cell-based; conditions: Homo sapiens, ZR-75-1, 240 h, total culture period of 10 days, read-out: ZR-75-1 Proliferation Inhibition IC50
Experimental: II. ZR-75-1 cell proliferation assay
• 1. ZR-75-1 cells were seeded in 96-well plates and cultured overnight in an incubator at 37°C & 5% CO2. • 2. Compounds were diluted using culture medium and added to the 96-well plates. The plates were placed back into the incubator for continued culture. Every 5 days, the cells were trypsinized, counted, and re-seeded. After the cells had fully adhered, compounds were added again for incubation, for a total culture period of 10 days. • 3. After the culture period, 60 µL of CellTiter-Glo reagent (Promega, G7573) was added to each well. The plates were protected from light and shaken for 2 minutes to lyse the cells, followed by further incubation at room temperature, protected from light, for 30 minutes. • 4. Luminescence signals were read using a BMG PHERAstar FSX. IC50 values were calculated by nonlinear regression using a four-parameter logistic equation in GraphPad Prism 8 software.

[3] = target: T2, KAT6A (Homo sapiens, UniProt Q92794); experiment: KATs acetyltransferase enzyme activity assay (TR-FRET), KAT6A; type: biochemical; conditions: Biotin-H3 (1-21) and AcCOA, 90 minutes at room temperature
T2 construct: purchased Active Motif 81223
T2 sequence (Q92794 488-778 limits assumed): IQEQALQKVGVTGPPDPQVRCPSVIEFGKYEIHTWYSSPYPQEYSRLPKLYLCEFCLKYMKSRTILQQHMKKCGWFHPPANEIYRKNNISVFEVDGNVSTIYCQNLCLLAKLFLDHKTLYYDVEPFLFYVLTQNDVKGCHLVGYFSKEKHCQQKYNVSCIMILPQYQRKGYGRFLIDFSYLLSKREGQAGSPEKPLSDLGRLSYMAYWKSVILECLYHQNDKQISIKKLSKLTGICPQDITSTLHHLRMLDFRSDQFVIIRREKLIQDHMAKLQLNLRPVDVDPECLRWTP
Experimental: as §1
as §2, with “Enzyme solutions (KAT6: active motif (kit), 81223; KAT6B: active motif, 81224; KAT5: SignalChem, K314-380G; KAT7: ICE, S2210F-H21HF; KAT8: Active motif, 81225) were added and the mixture was incubated at room temperature for 15 minutes. • 3.” left out, “HTRF signals were measured using a BMG PHERAstar FSX (Ratio: 665nm/620nm).” left out

[4] = tested on: ZR-75-1 H3K23 Acetylation; experiment: Histone H3 acetylation assay (H3K23 acetylation in ZR-75-1 cells); type: cell-based; conditions: Homo sapiens, 72 hours incubation, Odyssey CLx fluorescence, read-out: ZR-75-1 H3K23 Acetylation Inhibition IC50
Experimental: III. Histone H3 acetylation assay
• 1. ZR-75-1 cells were seeded at 5000 cells/40 µL per well in 384-well plates and cultured overnight in an incubator at 37°C & 5% CO2. • 2. 40 nL of serially diluted compounds were added to the 384-well plates, followed by further incubation for 72 hours. • 3. The supernatant was discarded, and 8 w/v% paraformaldehyde (final concentration was 4 w/v%) was added directly to the wells to fix the cells at room temperature. • 4. After washing twice with PBS, a permeabilization agent (40 µL of methanol) was added and incubated for 10 minutes to permeabilize the cell membranes. • 5. After washing twice with PBS, a blocking buffer was added and incubated at room temperature for 1 hour for blocking. • 6. The blocking buffer was discarded, and 20 µL of primary antibodies (recombinant Anti-Histone H3 (acetyl K23) antibody and Anti-Histone H4 antibody) diluted in blocking buffer (1:1000 by volume dilution) were added, followed by incubation at 4°C overnight. • 7. After washing three times with PBST (0.05 vol% Tween-20 in PBS), 20 µL of fluorescent secondary antibodies (IRDye 680RD Goat anti-MOUSE, Licor, 926-68070; IRDye 800CW Goat anti-Rabbit, Licor, 926-32211) diluted in blocking buffer (1:2000 by volume dilution) were added, followed by incubation at room temperature, protected from light, for 1 hour. Then, the plates were washed three times with PBST. • 8. Scanning was performed using an Odyssey CLx, and the fluorescence signal value for each well was quantified. IC50 values were calculated by nonlinear regression using a four-parameter logistic equation in GraphPad Prism 8 software.

T1 sequence (Q8WYB5 whole entry): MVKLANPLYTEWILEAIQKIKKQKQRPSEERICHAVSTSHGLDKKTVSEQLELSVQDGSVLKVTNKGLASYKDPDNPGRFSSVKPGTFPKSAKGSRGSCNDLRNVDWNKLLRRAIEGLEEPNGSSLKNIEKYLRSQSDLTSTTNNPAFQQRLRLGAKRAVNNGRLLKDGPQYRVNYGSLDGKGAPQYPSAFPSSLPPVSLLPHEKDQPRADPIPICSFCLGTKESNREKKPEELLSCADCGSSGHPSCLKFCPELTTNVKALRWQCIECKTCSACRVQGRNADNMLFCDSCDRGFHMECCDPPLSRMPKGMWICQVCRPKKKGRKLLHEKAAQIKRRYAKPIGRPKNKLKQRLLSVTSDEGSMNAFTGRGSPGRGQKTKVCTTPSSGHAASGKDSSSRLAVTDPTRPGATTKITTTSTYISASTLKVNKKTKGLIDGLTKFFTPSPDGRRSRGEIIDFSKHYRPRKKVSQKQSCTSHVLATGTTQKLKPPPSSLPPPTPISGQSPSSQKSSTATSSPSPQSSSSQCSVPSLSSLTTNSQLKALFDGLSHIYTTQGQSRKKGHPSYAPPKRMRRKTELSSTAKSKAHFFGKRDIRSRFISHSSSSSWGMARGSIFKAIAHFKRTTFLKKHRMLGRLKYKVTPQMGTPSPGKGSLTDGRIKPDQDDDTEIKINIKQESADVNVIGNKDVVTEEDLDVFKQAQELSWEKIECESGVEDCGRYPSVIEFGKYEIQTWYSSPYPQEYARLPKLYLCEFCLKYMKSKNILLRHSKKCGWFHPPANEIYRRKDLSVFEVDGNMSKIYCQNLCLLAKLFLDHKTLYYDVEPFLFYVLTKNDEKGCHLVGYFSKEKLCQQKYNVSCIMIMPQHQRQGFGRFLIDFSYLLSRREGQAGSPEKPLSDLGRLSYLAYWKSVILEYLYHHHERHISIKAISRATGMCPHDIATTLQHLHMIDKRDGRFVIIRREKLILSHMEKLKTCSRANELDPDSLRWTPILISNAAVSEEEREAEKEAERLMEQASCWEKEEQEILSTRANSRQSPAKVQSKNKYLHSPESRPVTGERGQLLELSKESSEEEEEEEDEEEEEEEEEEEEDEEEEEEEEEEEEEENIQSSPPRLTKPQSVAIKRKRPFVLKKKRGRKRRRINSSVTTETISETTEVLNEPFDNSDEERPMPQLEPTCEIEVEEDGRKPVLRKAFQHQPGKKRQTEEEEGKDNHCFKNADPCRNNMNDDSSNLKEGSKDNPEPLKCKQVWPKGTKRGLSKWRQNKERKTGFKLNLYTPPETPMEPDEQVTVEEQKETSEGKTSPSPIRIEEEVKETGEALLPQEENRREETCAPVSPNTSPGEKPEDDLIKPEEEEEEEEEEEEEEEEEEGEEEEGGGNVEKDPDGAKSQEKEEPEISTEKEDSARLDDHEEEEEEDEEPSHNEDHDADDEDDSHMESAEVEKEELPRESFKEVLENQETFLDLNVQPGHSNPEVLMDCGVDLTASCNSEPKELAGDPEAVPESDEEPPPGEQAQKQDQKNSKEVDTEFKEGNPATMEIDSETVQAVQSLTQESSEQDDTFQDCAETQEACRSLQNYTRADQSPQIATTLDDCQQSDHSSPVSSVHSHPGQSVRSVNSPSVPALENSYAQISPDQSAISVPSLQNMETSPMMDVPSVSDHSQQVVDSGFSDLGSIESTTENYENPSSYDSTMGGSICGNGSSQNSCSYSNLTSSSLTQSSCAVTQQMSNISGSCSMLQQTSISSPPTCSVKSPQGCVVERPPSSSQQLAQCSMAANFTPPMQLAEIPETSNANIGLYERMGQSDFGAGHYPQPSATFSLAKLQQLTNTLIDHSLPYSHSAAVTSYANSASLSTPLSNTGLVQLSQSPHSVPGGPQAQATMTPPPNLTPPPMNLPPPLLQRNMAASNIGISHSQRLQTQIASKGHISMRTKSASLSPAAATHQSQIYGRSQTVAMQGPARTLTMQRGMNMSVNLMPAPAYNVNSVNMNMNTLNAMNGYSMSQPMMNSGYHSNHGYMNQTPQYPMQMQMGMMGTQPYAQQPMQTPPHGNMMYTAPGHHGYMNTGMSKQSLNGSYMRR

## COc1ccc2c(c1S(=O)(=O)Nc1noc3cc(Cn4cccn4)c(F)c(OC)c13)OCC1CC21 (single isomer, unassigned) [Compound 30-P1]
[1]
  IC50: 1.4 nM
[2]
  IC50: 0.08 nM
[3]
  IC50: 1.4 nM
[4]
  IC50: 0.3 nM

## COc1cc2c(NS(=O)(=O)c3c(OC)ccc4c3OCC3CC43)noc2cc1Cn1cccn1 (single isomer, unassigned) [Compound 33]
[1]
  IC50: 1.2 nM
[2]
  IC50: 0.03 nM
[3]
  IC50: 1.1 nM
[4]
  IC50: 0.2 nM

## COc1ccc2c(c1S(=O)(=O)Nc1noc3cc(Cn4cccn4)c(F)cc13)OCC1CC21 (single isomer, unassigned) [Compound 34]
[1]
  IC50: 2.2 nM
[2]
  IC50: 0.04 nM
[3]
  IC50: 1.2 nM
[4]
  IC50: 0.4 nM

## COc1cc(Cn2cccn2)cc2onc(NS(=O)(=O)c3cccc4c3OCCCO4)c12 [Compound 1, N-(6-((1H-Pyrazol-1-yl)methyl)-4-methoxybenzo[d]isoxazol-3-yl)-3,4-dihydro-2H-benz o[b] [1,4]dioxepine-6-sulfonamide]
[1]
  IC50: 81.7 nM
[2]
  IC50: 6.7 nM
[3]
  IC50: 12.9 nM
[4]
  IC50: 9 nM

## COc1ccc2c(c1S(=O)(=O)Nc1noc3cc(Cn4cccn4)cc(OC)c13)OCC1CC21 (stereo not shown) [Compound 5, N-(6-((1H-Pyrazol-1-yl)methyl)-4-methoxybenzo[d]isoxazol-3-yl)-5-methoxy-1,1a,2,7b-tetrahydrocyclopropa[c]chromene-4-sulfonamide]
[1]
  IC50: 3.7 nM
[2]
  IC50: 0.2 nM
[3]
  IC50: 1.5 nM
[4]
  IC50: 0.5 nM

## COc1ccc2c(c1S(=O)(=O)Nc1noc3cc(Cn4cccn4)cc(OC)c13)OC[C@H]1C[C@@H]21 [Compound 5-P1, (1aS,7bR)-N-(6-((1H-Pyrazol-1-yl)methyl)-4-methoxybenzo[d]isoxazol-3-yl)-5-methoxy-1,1a,2,7b-tetrahydrocyclopropa[c]chromene-4-sulfonamide]
[1]
  IC50: 11.1 nM
[2]
  IC50: 0.3 nM
[3]
  IC50: 2.5 nM
[4]
  IC50: 1.9 nM

## COc1cc2c(cc1S(=O)(=O)Nc1noc3cc(Cn4cccn4)cc(OC)c13)C1CC1CO2 (stereo not shown) [Compound 6, N-(6-((1H-Pyrazol-1-yl)methyl)-4-methoxybenzo[d]isoxazol-3-yl)-5-methoxy-1,1a,2,7b-tetrahydrocyclopropa[c] chromene-6-sulfonamide]
[1]
  IC50: 11.8 nM
[2]
  IC50: 0.6 nM
[3]
  IC50: 1.3 nM
[4]
  IC50: 5.3 nM

## COc1cc2c(cc1S(=O)(=O)Nc1noc3cc(Cn4cccn4)cc(OC)c13)OCCCO2 [Compound 7, N-(6-((1H-Pyrazol-1-yl)methyl)-4-methoxybenzo[d]isoxazol-3-yl)-8-methoxy-3,4-dihyd ro-2H-benzo[b][1,4]dioxepine-7-sulfonamide]
[1]
  IC50: 19.2 nM
[2]
  IC50: 2.4 nM
[3]
  IC50: 2.7 nM
[4]
  IC50: 8.6 nM

## COc1cc2c(cc1S(=O)(=O)Nc1noc3cc(Cn4cccn4)cc(OC)c13)OCCOC2 [Compound 8]
[1]
  IC50: 40.8 nM
[2]
  IC50: 4.2 nM
[3]
  IC50: 2.7 nM
[4]
  IC50: 10.3 nM

## COc1ccc2c(c1S(=O)(=O)Nc1noc3cc(Cn4cccn4)cc(OC)c13)OCCOC2 [Compound 10, N-(6-((1H-Pyrazol-1-yl)methyl)-4-methoxybenzo[d]isoxazol-3-yl)-8-methoxy-2,3-dihyd ro-5H-benzo [e] [1,4] dioxepine-9-sulfonamide]
[1]
  IC50: 19.9 nM
[2]
  IC50: 1.4 nM
[3]
  IC50: 2.2 nM
[4]
  IC50: 2.3 nM

## COc1ccc2c(c1S(=O)(=O)Nc1noc3cc(Cn4cccn4)c(F)cc13)OCCCO2 [Compound 12, N-(6-((1H-Pyrazol-1-yl)methyl)-5-fluorobenzo[d]isoxazol-3-yl)-7-methoxy-3,4-dihydro-2H-benzo [b] [1,4] dioxepine-6-sulfonamide]
[1]
  IC50: 40 nM
[2]
  IC50: 1.4 nM
[3]
  IC50: 6.5 nM
[4]
  IC50: 4.5 nM

## COc1ccc2c(c1S(=O)(=O)Nc1noc3cc(Cn4cccn4)c(OC(F)F)cc13)OCCCO2 [Compound 13, N-(6-((1H-pyrazol-1-yl)methyl)-5-(difluoromethoxy)benzo[d]isoxazol-3-yl)-7-methoxy-3,4-dihydro-2H-benzo [b] [1,4] dioxepine-6-sulfonamide]
[2]
  IC50: 14.2 nM
[4]
  IC50: 34.3 nM

## COc1ccc2c(c1S(=O)(=O)Nc1noc3cc(Cn4cccn4)c(C4CC4)cc13)OCCCO2 [Compound 14, N-(6-((1H-Pyrazol-1-yl)methyl)-5-cyclopropylbenzo[d]isoxazol-3-yl)-7-methoxy-3,4-di hydro-2H-benzo[b][1,4]dioxepine-6-sulfonamide]
[1]
  IC50: 12.7 nM
[2]
  IC50: 8.6 nM
[3]
  IC50: 1.4 nM
[4]
  IC50: 11.5 nM

## COc1cc2c(NS(=O)(=O)c3c(OC)ccc4c3OCCCO4)noc2cc1Cn1cccn1 [Compound 15, N-(6-((1H-Pyrazol-1-yl)methyl)-5-methoxybenzo[d]isoxazol-3-yl)-7-methoxy-3,4-dihyd ro-2H-benzo[b][1,4] dioxepine-6-sulfonamide]
[1]
  IC50: 9.3 nM
[2]
  IC50: 0.6 nM
[3]
  IC50: 1.7 nM
[4]
  IC50: 1.1 nM

## CCc1c(Cn2cccn2)cc2onc(NS(=O)(=O)c3c(OC)ccc4c3OCC3CC43)c2c1OC (stereo not shown) [Compound 27, N-(6-((1H-Pyrazol-1-yl)methyl)-5-ethyl-4-methoxybenzo[d]isoxazol-3-yl)-5-methoxy-1,1a,2,7b-tetrahydrocyclopropa[c]chromene-4-sulfonamide]
[1]
  IC50: 8.9 nM
[2]
  IC50: 11.5 nM
[3]
  IC50: 1.3 nM
[4]
  IC50: 27.1 nM

## COc1ccc2c(c1S(=O)(=O)Nc1noc3cc(Cn4cccn4)cc(OC)c13)OCC21COC1 [Compound 49, N-(6-((1H-Pyrazol-1-yl)methyl)-4-methoxybenzo[d]isoxazol-3-yl)-6-methoxy-2H-spiro[benzofuran-3,3'-oxetane]-7-sulfonamide]
[1]
  IC50: 23.1 nM
[3]
  IC50: 3 nM
[4]
  IC50: 4.2 nM

## COc1ccc2c(c1S(=O)(=O)Nc1noc3cc(Cn4cccn4)cc(OC)c13)OC1CC1O2 (stereo not shown) [Compound 50, N-(6-((1H-Pyrazol-1-yl)methyl)-4-methoxybenzo[d]isoxazol-3-yl)-4-methoxy-1a,7a-dihydro-1H-benzo[b]cyclopropa[e][1,4]dioxine-3-sulfonamide]
[1]
  IC50: 51.6 nM
[3]
  IC50: 6.8 nM
[4]
  IC50: 6.5 nM
